Reference: ChEMBL document CHEMBL1201862, “PubChem BioAssay data set” (2004)
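Dose response: 5 concentrations. Exposure: 48 h. Format: 96-well plates. Endpoint: linear interpolation; highest concentration if not reached. The concentration for 50% growth inhibition is given as GI50.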 Active and inactive are the calls of the source. Rule as the data show it: active = GI50 up to about 1.1 µM and inactive = higher.

Columns and labels:
Assay in all cases: NCI anticancer screen, dose series, 48 h
786-0 = system: 786-0
A498 = system: A498
A549 = system: A549
ACHN = system: ACHN
BT-549 = system: BT-549
CCRF-CEM = system: CCRF-CEM
COLO 205 = system: COLO 205
DU-145 = system: DU-145
EKVX = system: EKVX
HCC 2998 = system: HCC 2998
HCT-116 = system: HCT-116
HCT-15 = system: HCT-15
HL-60 = system: HL-60
HOP-62 = system: HOP-62
HOP-92 = system: HOP-92
HT-29 = system: HT-29
Hs-578T = system: Hs-578T
IGROV-1 = system: IGROV-1
K562 = system: K562
KM12 = system: KM12
LOX IMVI = system: LOX IMVI
M14 = system: M14
MCF7 = system: MCF7
MDA-MB-231 = system: MDA-MB-231
MDA-MB-435 = system: MDA-MB-435
MDA-N = system: MDA-N
MOLT-4 = system: MOLT-4
Malme-3M = system: Malme-3M
NCI-H226 = system: NCI-H226
NCI-H23 = system: NCI-H23
NCI-H460 = system: NCI-H460
NCI-H522 = system: NCI-H522
NCI/ADR-RES = system: NCI/ADR-RES
OVCAR-3 = system: OVCAR-3
OVCAR-4 = system: OVCAR-4
OVCAR-5 = system: OVCAR-5
OVCAR-8 = system: OVCAR-8
PC-3 = system: PC-3
RPMI-8226 = system: RPMI-8226
RXF 393 = system: RXF 393
SF-268 = system: SF-268
SF-295 = system: SF-295
SK-MEL-28 = system: SK-MEL-28
SK-MEL-5 = system: SK-MEL-5
SK-OV-3 = system: SK-OV-3
SN12C = system: SN12C
SNB-19 = system: SNB-19
SNB-75 = system: SNB-75
SW-620 = system: SW-620
T47D = system: T47D
TK-10 = system: TK-10
U-251 = system: U-251
UACC-257 = system: UACC-257
UACC-62 = system: UACC-62
UO-31 = system: UO-31
CAKI-1 = system: CAKI-1
SF-539 = system: SF-539
SK-MEL-2 = system: SK-MEL-2

SMILES: c1ccc(-c2cnc(-c3ccc(-c4ncc(-c5ccccc5)o4)cc3)o2)cc1
- GI50 (786-0): > 100 µM (inactive)
- GI50 (A498): > 100 µM (inactive)
- GI50 (A549): > 100 µM (inactive)
- GI50 (ACHN): > 100 µM (inactive)
- GI50 (BT-549): > 100 µM (inactive)
- GI50 (CCRF-CEM): > 100 µM (inactive)
- GI50 (COLO 205): > 100 µM (inactive)
- GI50 (DU-145): > 100 µM (inactive)
- GI50 (EKVX): > 100 µM (inactive)
- GI50 (HCC 2998): > 100 µM (inactive)
- GI50 (HCT-116): > 100 µM (inactive)
- GI50 (HCT-15): > 100 µM
- GI50 (HL-60): > 100 µM (inactive)
- GI50 (HOP-62): > 100 µM (inactive)
- GI50 (HOP-92): > 100 µM (inactive)
- GI50 (HT-29): > 100 µM (inactive)
- GI50 (Hs-578T): > 100 µM (inactive)
- GI50 (IGROV-1): > 100 µM (inactive)
- GI50 (K562): > 100 µM (inactive)
- GI50 (KM12): > 100 µM (inactive)
- GI50 (LOX IMVI): > 100 µM (inactive)
- GI50 (M14): > 100 µM (inactive)
- GI50 (MCF7): > 100 µM (inactive)
- GI50 (MDA-MB-231): > 100 µM (inactive)
- GI50 (MDA-MB-435): > 100 µM (inactive)
- GI50 (MDA-N): > 100 µM (inactive)
- GI50 (MOLT-4): > 100 µM (inactive)
- GI50 (Malme-3M): > 100 µM (inactive)
- GI50 (NCI-H226): > 100 µM (inactive)
- GI50 (NCI-H23): > 100 µM (inactive)
- GI50 (NCI-H460): > 100 µM (inactive)
- GI50 (NCI-H522): > 100 µM (inactive)
- GI50 (NCI/ADR-RES): > 100 µM (inactive)
- GI50 (OVCAR-3): > 100 µM (inactive)
- GI50 (OVCAR-4): > 100 µM (inactive)
- GI50 (OVCAR-5): > 100 µM (inactive)
- GI50 (OVCAR-8): > 100 µM (inactive)
- GI50 (PC-3): > 100 µM (inactive)
- GI50 (RPMI-8226): > 100 µM (inactive)
- GI50 (RXF 393): > 100 µM (inactive)
- GI50 (SF-268): > 100 µM (inactive)
- GI50 (SF-295): > 100 µM (inactive)
- GI50 (SK-MEL-28): > 100 µM (inactive)
- GI50 (SK-MEL-5): > 100 µM (inactive)
- GI50 (SK-OV-3): > 100 µM (inactive)
- GI50 (SN12C): > 100 µM (inactive)
- GI50 (SNB-19): > 100 µM (inactive)
- GI50 (SNB-75): 56.5 µM (inactive)
- GI50 (SW-620): > 100 µM (inactive)
- GI50 (T47D): > 100 µM (inactive)
- GI50 (TK-10): > 100 µM (inactive)
- GI50 (U-251): > 100 µM (inactive)
- GI50 (UACC-257): > 100 µM (inactive)
- GI50 (UACC-62): > 100 µM (inactive)
- GI50 (UO-31): > 100 µM (inactive)

SMILES: NC(=S)SCCC(=O)O
- GI50 (786-0): > 100 µM (inactive)
- GI50 (A498): > 100 µM (inactive)
- GI50 (A549): > 100 µM (inactive)
- GI50 (ACHN): > 100 µM (inactive)
- GI50 (BT-549): > 100 µM (inactive)
- GI50 (CAKI-1): > 100 µM (inactive)
- GI50 (CCRF-CEM): > 100 µM (inactive)
- GI50 (COLO 205): > 100 µM (inactive)
- GI50 (DU-145): > 100 µM (inactive)
- GI50 (EKVX): > 100 µM (inactive)
- GI50 (HCC 2998): > 100 µM (inactive)
- GI50 (HCT-116): > 100 µM (inactive)
- GI50 (HCT-15): > 100 µM
- GI50 (HL-60): > 100 µM (inactive)
- GI50 (HOP-62): > 100 µM (inactive)
- GI50 (HOP-92): > 100 µM (inactive)
- GI50 (HT-29): > 100 µM (inactive)
- GI50 (Hs-578T): > 100 µM (inactive)
- GI50 (IGROV-1): > 100 µM (inactive)
- GI50 (K562): > 100 µM (inactive)
- GI50 (KM12): > 100 µM (inactive)
- GI50 (LOX IMVI): > 100 µM (inactive)
- GI50 (M14): > 100 µM (inactive)
- GI50 (MCF7): > 100 µM (inactive)
- GI50 (MDA-MB-231): > 100 µM (inactive)
- GI50 (MDA-MB-435): > 100 µM (inactive)
- GI50 (MDA-N): > 100 µM (inactive)
- GI50 (MOLT-4): > 100 µM (inactive)
- GI50 (Malme-3M): > 100 µM (inactive)
- GI50 (NCI-H226): > 100 µM (inactive)
- GI50 (NCI-H23): > 100 µM (inactive)
- GI50 (NCI-H460): > 100 µM (inactive)
- GI50 (NCI-H522): > 100 µM (inactive)
- GI50 (NCI/ADR-RES): > 100 µM (inactive)
- GI50 (OVCAR-3): > 100 µM (inactive)
- GI50 (OVCAR-4): > 100 µM (inactive)
- GI50 (OVCAR-5): > 100 µM (inactive)
- GI50 (OVCAR-8): > 100 µM (inactive)
- GI50 (PC-3): > 100 µM (inactive)
- GI50 (RPMI-8226): > 100 µM (inactive)
- GI50 (SF-268): > 100 µM (inactive)
- GI50 (SF-295): > 100 µM (inactive)
- GI50 (SF-539): > 100 µM (inactive)
- GI50 (SK-MEL-28): > 100 µM (inactive)
- GI50 (SK-MEL-2): > 100 µM (inactive)
- GI50 (SK-MEL-5): > 100 µM (inactive)
- GI50 (SK-OV-3): > 100 µM (inactive)
- GI50 (SN12C): > 100 µM (inactive)
- GI50 (SNB-19): > 100 µM (inactive)
- GI50 (SNB-75): > 100 µM (inactive)
- GI50 (SW-620): > 100 µM (inactive)
- GI50 (T47D): 43.2 µM (inactive)
- GI50 (TK-10): > 100 µM (inactive)
- GI50 (U-251): > 100 µM (inactive)
- GI50 (UACC-257): > 100 µM (inactive)
- GI50 (UACC-62): > 100 µM (inactive)
- GI50 (UO-31): > 100 µM (inactive)
